Test results published in patent US10081632B2, “Substituted tetrahydropyrido[3′,2′:4,5]pyrrolo[1,2-α]pyrazine-2-carboxamides as RSK inhibitors” (Phoenix Molecular Designs, priority 2016, dated 2018).

Legend:
[1] = test system: 4T1 cells; experiment: Soft agar growth inhibition assay; assay type: cell-based; settings: Mus musculus, 4T1, 240 h, 4T1, 10 days; read-out: IC50 Values, 10 Days, Soft Agar
Description: Two agar (Alfa Aesar) solutions (0.8% w/v and 0.4% w/v) were prepared in ultrapure water. The 0.8% agar solution was mixed in equal volumes with 2× media previously prepared from powder (Life Technologies) following the manufacturer's instructions and filter sterilized. The 0.8% agar and media solution was added to 24 well plates (Mandel Scientific) at 500 μl per well. The plates were placed in a humidified incubator at 37° C. with 5% CO2. Next, the 0.4% agar solution was mixed in equal volumes with 2× media. Breast cancer cell lines were added to this solution to achieve a final concentration of 2×10^4 cells per well and […] was added to each well on top of the bottom agar and media layer. […] The plates were returned to the incubator for 10-32 days, with a re-dosing of compounds or DMSO every 7 days. After 10-32 days, colonies were counted in 3 different fields of view for each well.
Representative compounds described herein were tested in the soft agar growth inhibition assay against the 4T1 breast cancer cell line.

[2] = test system: All cell lines; experiment: Monolayer growth inhibition, crystal violet assay, range over all cell lines; assay type: cell-based; settings: 120 h; range of IC50 over all cell lines of the table; read-out: IC50 Values - Crystal Violet (5 Days), Range, All
Text: (§1) In all instances a single dose was given on day 1 of the experiment. […] Complete (100%) growth suppression was achievable with several of the compounds in multiple different cell lines.

[3] = test system: CD34+ cells; experiment: Colony forming unit hematopoietic stem cell assay; assay type: cell-based, human; settings: Homo sapiens, Hematopoietic stem cell, 336 h, CD34+ HSC, 14 days; read-out: IC50 Values - 14 days, CFU Assay
Description: The hematopoietic colony forming cell assay was conducted based on a protocol outlined by StemCell Technologies. […] Following the addition of CD34^+ cells isolated from human cord blood or peripheral blood (StemCell Technologies) at a final concentration of 5×10^2 cells per dish, the tubes were vortexed and allowed to stand for 5 minutes at room temperature. Next, the MethoCult mixtures were dispensed into 35 mm dishes (Corning Incorporated) through blunt end needles (StemCell Technologies) and 5 ml syringes (BD Biosciences) at a volume of 1.1 ml per dish. The medium was evenly distributed across the surface of each dish by gentle tilting and rotation. The dishes were then placed in a 100 mm culture dish (Grenier Bio-One) containing additional 35 mm dishes with sterile water to maintain humidity. […] The number of myeloid and erythroid derived colonies in both the treated and control dishes were counted and compared.

[4] = test system: T47D cells; experiment: Monolayer growth inhibition, Alamar blue assay; assay type: cell-based, Human; settings: Homo sapiens, T47D, T47D (ER/PR), 5 days, single dose on day 1
Text: (§2) In all instances a single dose was given on day 1 of the experiment.

[5] = test system: SUM149-PTXR cells; experiment: Monolayer growth inhibition, Alamar blue assay; assay type: cell-based, Human; settings: Homo sapiens; SUM149-PTXR (TNBC, BRCA Mutant), 5 days, single dose on day 1
Text: as §2

[6] = test system: MDA-MB-468 cells; experiment: Monolayer growth inhibition, Alamar blue assay; assay type: cell-based; settings: Homo sapiens, MDA-MB-468, MDA-MB-468 (TNBC), 5 days, single dose on day 1
Text: as §2

[7] = test system: 4T1 cells; experiment: Monolayer growth inhibition, Alamar blue assay; assay type: cell-based; settings: Mus musculus, 4T1, 4T1 (TNBC), 5 days, single dose on day 1
Text: as §2

[8] = test system: MDA-MB-435 cells; experiment: Monolayer growth inhibition, Alamar blue assay; assay type: cell-based; settings: Homo sapiens, MDA-MB-435, MDA-MB-435 (Melanoma), 5 days, single dose on day 1
Text: as §2

[9] = test system: HCC1937 cells; experiment: Monolayer growth inhibition, Alamar blue assay; assay type: cell-based; settings: Homo sapiens, HCC1937, HCC1937 (TNBC, BRCA Mutant), 5 days, single dose on day 1
Text: as §2

[10] = test system: HCC1143 cells; experiment: Monolayer growth inhibition, Alamar blue assay; assay type: cell-based; settings: Homo sapiens, HCC1143, HCC1143 (TNBC), 5 days, single dose on day 1
Text: as §2

[11] = test system: PC3 cells; experiment: Monolayer growth inhibition, Alamar blue assay; assay type: cell-based; settings: Homo sapiens, PC-3; PC3 (Prostate), 5 days, single dose on day 1
Text: as §2

[12] = test system: JIMT-1 cells; experiment: Monolayer growth inhibition, Alamar blue assay; assay type: cell-based; settings: Homo sapiens, JIMT-1, JIMT-1 (HER2), 5 days, single dose on day 1
Text: as §2

[13] = test system: SUM149 cells; experiment: Monolayer growth inhibition, Alamar blue assay; assay type: cell-based; settings: Homo sapiens, SUM149, SUM149 (TNBC, BRCA Mutant), 5 days, single dose on day 1
Text: as §2

[14] = test system: All cell lines; experiment: Monolayer growth inhibition, Alamar blue assay, range over all cell lines; assay type: cell-based; settings: 120 h; range of IC50 over all cell lines of the table; read-out: IC50 Values - Alamar Blue (5 Days), Range, All
Text: as §2

[15] = test system: MDA-MB-468 cells; experiment: Monolayer growth inhibition, crystal violet assay; assay type: cell-based; settings: Homo sapiens, MDA-MB-468, MDA-MB-468 (TNBC), 5 days, single dose on day 1
Text: as §1

[16] = test system: HCC1937 cells; experiment: Monolayer growth inhibition, crystal violet assay; assay type: cell-based; settings: Homo sapiens, HCC1937, HCC1937 (TNBC, BRCA Mutant), 5 days, single dose on day 1
Text: as §1

[17] = test system: T47D cells; experiment: Monolayer growth inhibition, crystal violet assay; assay type: cell-based; settings: Homo sapiens, T47D, T47D (ER/PR), 5 days, single dose on day 1
Text: as §1

[18] = test system: JIMT-1 cells; experiment: Monolayer growth inhibition, crystal violet assay; assay type: cell-based; settings: Homo sapiens, JIMT-1, JIMT-1 (HER2), 5 days, single dose on day 1
Text: as §1

[19] = test system: 4T1 cells; experiment: Monolayer growth inhibition, crystal violet assay; assay type: cell-based; settings: Mus musculus, 4T1, 4T1 (TNBC), 5 days, single dose on day 1
Text: as §2

[20] = test system: MDA-MB-435 cells; experiment: Monolayer growth inhibition, crystal violet assay; assay type: cell-based; settings: Homo sapiens; MDA-MB-435 (Melanoma), 5 days, single dose on day 1
Text: as §2

[21] = test system: HCC1143 cells; experiment: Monolayer growth inhibition, crystal violet assay; assay type: cell-based; settings: Homo sapiens, HCC1143, HCC1143 (TNBC), 5 days, single dose on day 1
Text: as §2

[22] = test system: PC3 cells; experiment: Monolayer growth inhibition, crystal violet assay; assay type: cell-based; settings: Homo sapiens, PC-3; PC3 (Prostate), 5 days, single dose on day 1
Text: as §2

[23] = test system: SUM149 cells; experiment: Monolayer growth inhibition, crystal violet assay; assay type: cell-based; settings: Homo sapiens, SUM149, SUM149 (TNBC, BRCA Mutant), 5 days, single dose on day 1
Text: as §2

[24] = test system: SUM149-PTXR cells; experiment: Monolayer growth inhibition, crystal violet assay; assay type: cell-based; settings: Homo sapiens; SUM149-PTXR (TNBC, BRCA Mutant), 5 days, single dose on day 1
Text: as §2

C[C@@H]1CNC(=O)c2cc3ccc(NC(=O)c4cnn(Cc5ccccc5)c4)nc3n21 [Compound 15, (R)-1-benzyl-N-(9-methyl-6-oxo-6,7,8,9-tetrahydropyrido[3′,2′:4,5]pyrrolo[1,2-a]pyrazin-2-yl)-1H-pyrazole-4-carboxamide]
IC50 [1]: 3.8 µM
IC50 [2]: 5.9 to 21 µM
IC50 [3]: 23.8 µM
IC50 [4]: 7.8 ± 3.7 µM
IC50 [5]: 9.2 ± 3 µM
IC50 [6]: 13.3 ± 4.1 µM
IC50 [7]: 8.8 ± 2.1 µM
IC50 [8]: 13.7 ± 3.4 µM
IC50 [9]: 9.7 ± 3.9 µM
IC50 [10]: 3.6 ± 2.7 µM
IC50 [11]: 11.5 ± 3.4 µM
IC50 [12]: 8.3 ± 1.8 µM
IC50 [13]: 11.7 ± 2.8 µM
IC50 [14]: 3.6 to 21.3 µM
IC50 [15]: 11.3 ± 0.7 µM
IC50 [16]: 12 ± 0.2 µM
IC50 [17]: 8.5 ± 0.7 µM
IC50 [18]: 11.2 ± 0.2 µM
IC50 [19]: 6.9 ± 3 µM
IC50 [20]: 8.2 ± 2.5 µM
IC50 [21]: 12.6 ± 3.4 µM
IC50 [22]: 5.9 ± 1.4 µM
IC50 [23]: 9.9 ± 3.1 µM
IC50 [24]: 8.8 ± 2.2 µM
